Measurements: US12698258B2, “Cystine cationic lipids” (Translate Bio, Inc., priority 2019, dated 2026)

System: hEPO protein expression
Test: In vivo expression of hEPO after IM injection of lipid nanoparticle formulations with hEPO mRNA
Parameters: species or system BALB/c mice
Details: lipid nanoparticles comprising the compound and hEPO mRNA; single intramuscular injection, 0.1 ug; hEPO in sera by ELISA; 24 hours after administration
Description: In embodiments, cationic lipids described herein can be used in the preparation of lipid nanoparticles according to methods known in the art. For example, suitable methods include methods described in international Publication No. WO 2018/089801, which is hereby incorporated by reference in its entirety.
Lipid nanoparticle formulations comprising human erythropoietin (hEPO) mRNA, Cationic Lipid, DMG-PEG2000, Cholesterol and DOPE were administered intramuscularly to study mRNA delivery and resultant hEPO expression. Male BALB/c mice at 6-8 weeks old are given a single injection of the LNP formulations into the gastrocnemius muscle at a dosage level of 0.1 ug. Blood samples were collected at 6 and 24 hours post-dose. hEPO protein expression levels were measured in the sera samples by ELISA and presented in FIG. 1.

Row | SMILES | in vivo protein production resulting from the delivery of mRNA (FIG. 1)
1 | CCCCCCCC(C)COC(=O)CCN(CCC(=O)OCCCCCCCC(C)C)[C@@H](CSSC[C@@H](C(=O)OCCOCCOCCOC)N(CCC(=O)OCCCCCCCC(C)C)CCC(=O)OCC(C)CCCCCCC)C(=O)OCCOCCOCCOC (some centres unmarked) [Compound 4] | high levels of in vivo protein production
2 | CCCCCCCC(C)COC(=O)CCN(CCC(=O)OCCCCCCCC(C)C)[C@@H](CSSC[C@@H](C(=O)OC(C)CN(CCCN(C)C)CCCN(C)C)N(CCC(=O)OCCCCCCCC(C)C)CCC(=O)OCC(C)CCCCCCC)C(=O)OC(C)CN(CCCN(C)C)CCCN(C)C (some centres unmarked) [Compound 3] | high levels of in vivo protein production
